Measured values from patent publication US20060247303A1, “7H-dibenzo[b,g][1,5]dioxocin-5-one derivatives and use thereof” (BAYER HEALTHCARE AG, priority 2002, published 2006).
Read-outs that look alike come from different tables or passages of the source.

Assays:
[1] = target: T1, CETP activity in the serum (Homo sapiens, UniProt P11597); assay: Measurement of the ex vivo activities on transgenic hCETP mice; assay type: in vivo; settings: mouse, serum cholesteryl ester transport; for inhibition at 30 mg/kg: 30 mg/kg oral; for inhibition at 100 mg/kg: 100 mg/kg oral
T1 construct: from tissue; host or cells: serum of transgenic hCETP mice
T1 sequence (P11597 18-493): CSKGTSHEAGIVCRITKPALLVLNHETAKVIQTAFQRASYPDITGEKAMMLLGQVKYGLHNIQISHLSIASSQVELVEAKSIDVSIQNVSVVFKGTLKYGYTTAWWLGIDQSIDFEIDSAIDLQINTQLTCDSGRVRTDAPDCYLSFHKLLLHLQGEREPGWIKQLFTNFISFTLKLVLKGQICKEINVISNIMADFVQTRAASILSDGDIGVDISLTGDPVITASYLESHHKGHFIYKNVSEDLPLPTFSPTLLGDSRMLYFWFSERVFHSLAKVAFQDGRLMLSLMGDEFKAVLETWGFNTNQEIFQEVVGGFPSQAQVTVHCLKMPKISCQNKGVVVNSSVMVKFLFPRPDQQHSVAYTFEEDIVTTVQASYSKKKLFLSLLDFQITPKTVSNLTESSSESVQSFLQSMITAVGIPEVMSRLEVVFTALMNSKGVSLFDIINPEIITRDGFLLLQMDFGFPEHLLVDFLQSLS
Procedure: To test for CETP-inhibitory activity, the substances are administered orally using a stomach tube to transgenic hCETP mice bred in-house (Dinchuk et al. BBA (1995) 1295-301). To this end, male animals are randomly assigned to groups having an equal number of animals, as a rule n=3, one day before the start of the experiment. Before administration of the substance, blood is taken from each mouse by puncture of the retro-orbital venous plexus for the determination of its basal CETP activity in the serum (T1). The test substance is then administered to the animals using the stomach tube. At specific times after administration of the test substance, blood is taken from the animals by puncture a second time (T2), as a rule 0.5, or 1 and 2 h after substance administration, but if appropriate this can also be carried out at another time.
In order to be able to assess the inhibitory activity of a substance, for each time, i.e. 0.5 or 1 or 2 h, a corresponding control group is employed whose animals only receive the formulating agent without substance. In the control animals, the second blood sampling per animal is carried out as in the substance-treated animals in order to be able to determine the change in the CETP activity without inhibitor over the corresponding experimental time interval (0.5, 1 or 2 h).
After termination of the clotting, the blood samples are centrifuged and the serum is removed by pipette.
For the determination of the CETP activity, the cholesteryl ester transport over 4 h is determined. To this end, as a rule 2 μl of serum are employed in the test batch and the test is carried out as described under “CETP fluorescence test”.
The differences in the cholesteryl ester transport [pM CE*/h (T2)−pM CE*/h (T1)] are calculated for each animal and averaged in the groups. A substance which at one of the times reduces the cholesteryl ester transport by >30% is regarded as active.

CETP = target: T2, CETP (Homo sapiens, UniProt P11597); assay: CETP fluorescence test; assay type: biochemical; settings: CETP from human plasma, transfer of fluorescent cholesterol ester between liposomes, 37° C., 4 hours; read-out: IC50 [nM] Fluor. test
T2 construct: enriched CETP fraction, obtained from human plasma by means of hydrophobic chromatography; from tissue; host or cells: human plasma
T2 sequence (P11597 18-493): T1 sequence (P11597 18-493)
Procedure: CETP is obtained in partially purified form from human plasma by differential centrifugation and column chromatography and used for the test. To this end, human plasma is adjusted to a density of 1.21 g per ml using NaBr and centrifuged at 4° C. at 50 000 rpm for 18 h. The bottom fraction (d>1.21 g/ml) is applied to a Sephadex® Phenyl-Sepharose 4B (Pharmacia) column, washed with 0.15 M NaCl/0.001 M tris HCl pH 7.4 and then eluted with distilled water. The CETP-active fractions are pooled, dialysed against 50 mM sodium acetate pH 4.5 and applied to a CM-Sepharose® column (Pharmacia). The mixture is then eluted using a linear gradient (0-1 M NaCl). The pooled CETP fractions are dialysed against 10 mM Tris HCl pH 7.4 and then further purified by chromatography on a Mono Q® column (Pharmacia).
Measurement of the CETP-catalysed transfer of a fluorescent cholesterol ester between liposomes—modified according to the procedure of Bisgaier et al., J. Lipid Res. 34, 1625 (1993):
For the production of the donor liposomes, 1 mg of cholesteryl 4,4-difluoro-5,7-dimethyl-4-bora-3a,4a-diaza-s-indacene-3-dodecanoate (cholesteryl BODIPY® FL C12, Molecular Probes) is dissolved in 600 μl of dioxane with 5.35 mg of triolein and 6.67 mg of phosphatidylcholine with gentle warming in an ultrasonic bath and this solution is added very slowly with ultrasonication to 63 ml of 50 mM tris/HCl, 150 mM NaCl, 2 mM EDTA buffer pH 7.3 at RT.
The suspension is then ultrasonicated under an N2 atmosphere for 30 minutes in the Braukson ultrasonic bath at about 50 watts, the temperature being kept at about 20° C.
The acceptor liposomes are obtained analogously from 86 mg of cholesteryl oleate, 20 mg of triolein and 100 mg of phosphatidylcholine dissolved in 1.2 ml of dioxane and 114 ml of above buffer by ultrasonication at 50 watts (20° C.) for 30 minutes.
For testing, a test mix consisting of 1 part of above buffer, 1 part of donor liposomes and 2 parts of acceptor liposomes is used.
80 μl of test mix are treated with 1-3 μg of enriched CETP fraction, obtained from human plasma by means of hydrophobic chromatography, and 2 μl of the substance to be investigated in DMSO and incubated at 37° C. for 4 hours.
The change in the fluorescence at 485/535 nm is a measure of the CE transfer; the inhibition of the transfer in comparison to the control batch without substance is determined.

HDL = assay: Measurement of the in vivo activity in transgenic hCETP mice; settings: stomach tube
Procedure: In experiments for the determination of the oral action on lipoproteins and triglycerides, test substance is administered to transgenic mice [Dinchuck et al., BBA, 1295-301 (1995)] using a stomach tube. Before the start of the experiment, blood is taken from the mice retro-orbitally in order to determine cholesterol and triglycerides in the serum. The serum is obtained as described above for hamsters by incubation at 4° C. overnight and subsequent centrifugation at 6000×g. […] The change in the parameters measured are expressed as the percentage change compared with the starting value.

HDL cholesterol = assay: Measurement of the in vivo activity in Syrian golden hamsters; settings: peroral
Procedure: In experiments for the determination of the oral action on lipoproteins and triglycerides, test substance dissolved in DMSO and 0.5% suspended in Tylose are administered perorally by means of a stomach tube to Syrian golden hamsters bred in-house. For the determination of the CETP activity, before the start of the experiment blood is taken by retro-orbital puncture (about 250 μl). The test substances are then administered perorally by means of a stomach tube. The control animals receive identical volumes of solvent without test substance. […]
Clotting is terminated by incubation of 4° C. overnight, then centrifugation is carried out for 10 minutes at 6000×g. The content of cholesterol and triglycerides in the serum thus obtained is determined with the aid of modified commercially obtainable enzymatic tests (Ecolin 25 Cholesterol, 1.14830.0001 Merck Diagnostica; Ecoline 25 Triglycerides, 1.14856.0001 Merck Diagnostica). […]
10 μl of serum dilution are treated with 200 μl of Ecoline 25 reagent in 96-hole plates and incubated for 10 minutes at room temperature. The optical density is then determined at a wavelength of 490 nm using an automatic plate reader. The triglyceride or cholesterol concentration contained in the samples is determined with the aid of a standard curve measured in parallel. […]

[2] = 1 h after administration, read-out: % inhibition at 30 mg/kg 1 h
[3] = 3 h after administration, read-out: % inhibition at 30 mg/kg 3 h
[4] = 6 h after administration, read-out: % inhibition at 30 mg/kg 6 h
[5] = 0.5 h after administration, read-out: % inhibition at 30 mg/kg 0.5 h
[6] = 2 h after administration, read-out: % inhibition at 30 mg/kg 2 h
[7] = 0.5 h after administration, read-out: % inhibition at 100 mg/kg 0.5 h
[8] = 1 h after administration, read-out: % inhibition at 100 mg/kg 1 h
[9] = 2 h after administration, read-out: % inhibition at 100 mg/kg 2 h

SMILES	inhibition at 30 mg/kg [1, 2] [%]	inhibition at 30 mg/kg [1, 3] [%]	inhibition at 30 mg/kg [1, 4] [%]	IC50 (CETP) [nM]	inhibition at 30 mg/kg [1, 5] [%]	inhibition at 30 mg/kg [1, 6] [%]	% increase of HDL after 4 d (dose: 4 × 30 mg/kg) (HDL) [%]	% increase of HDL after 24 h (dose: 2 × 30 mg/kg) (HDL cholesterol) [%]	inhibition at 100 mg/kg [1, 7] [%]	inhibition at 100 mg/kg [1, 8] [%]	inhibition at 100 mg/kg [1, 9] [%]
COCc1c(C)c(Cl)c2c(c1OC(=O)C1(C)C3CCC1CC3)Oc1ccc(C(O)CC(C)(C)C)c(OC)c1C(=O)OC2 (stereo not shown) [Example C-71]	60	29	7	40	–	–	–	–	–	–	–
CCc1c(C)c(Cl)c2c(c1OC(=O)C1(C)C3CCC1CC3)Oc1ccc([C@@H](O)CC(C)C)c(OC)c1C(=O)OC2 (stereo partly shown) [Example C-118]	75	50	20	58	–	–	–	–	–	–	–
COc1c([C@@H](O)CC(C)C)ccc2c1C(=O)OCc1c(C)c(C)c(C)c(OC(=O)C3(C)CC4CCC3C4)c1O2 (stereo partly shown) [Example B-70]	30	–	–	150	48	44	–	–	–	–	–
COc1c([C@@H](O)CC(C)C)ccc2c1C(=O)OCc1cc(C)c(C3CC3)c(OC(=O)C3(C)C4CCC3CC4)c1O2 (stereo partly shown) [Example C-59]	52	32	26	–	–	–	–	–	–	–	–
CCc1c(C)c(Cl)c2c(c1OC(=O)C1(C)C3CCC1CC3)Oc1ccc([C@@H](O)CC(C)(C)C)c(OC)c1C(=O)OC2 (stereo partly shown) [Example C-73]	91	81	56	15	–	–	56	–	–	–	–
COc1c([C@@H](O)CC(C)(C)C)ccc2c1C(=O)OCc1c(Cl)c(C)c(C)c(OC(=O)C3(C)C4CCC3CC4)c1O2 (stereo partly shown) [Example C-72]	–	–	–	30	–	–	68	–	–	–	–
COc1c([C@@H](O)CC(C)(C)C)ccc2c1C(=O)OCc1c(Cl)c(C)c(Br)c(OC(=O)C3(C)C4CCC3CC4)c1O2 (stereo partly shown) [Example C-63]	83	65	48	32	–	–	–	17	–	–	–
COc1c([C@@H](O)CC(C)C)ccc2c1C(=O)OCc1c(Cl)c(C)c(Br)c(OC(=O)C3(C)CC4CCC3C4)c1O2 (stereo partly shown) [Example B-45]	71	–	–	70	70	63	–	–	–	–	–
COc1c([C@@H](O)CC(C)C)ccc2c1C(=O)OCc1c(Cl)c(C)c(Cl)c(OC(=O)C3(C)CC4CCC3C4)c1O2 (stereo partly shown) [Example B-81]	59	–	–	60	54	55	–	–	–	–	–
COc1c([C@@H](O)CC(C)C)ccc2c1C(=O)OCc1c(Cl)c(C)c(Cl)c(OC(=O)C3(C)CCCCC3)c1O2 [Example B-84]	28	–	–	100	31	35	–	–	–	–	–
COc1c([C@@H](O)CC(C)C)ccc2c1C(=O)OCc1c(Cl)c(C)c(C3CC3)c(OC(=O)C3(C)C4CCC3CC4)c1O2 (stereo partly shown) [Example C-56]	66	53	14	57	–	–	–	–	–	–	–
COc1c([C@@H](O)CC(C)C)ccc2c1C(=O)OCc1cc(C)cc(OC(=O)CC(C)(C)C)c1O2 [Example A-23]	–	–	–	250	–	–	–	–	59	52	31
COc1c([C@@H](O)CC(C)C)ccc2c1C(=O)OCc1c(Cl)c(C)c(Br)c(OC(=O)[C@]3(C)CC4C=CC3C4)c1O2 (stereo partly shown) [Example C-31]	76	–	–	–	83	64	–	–	–	–	–
COc1c([C@@H](O)CC(C)C)ccc2c1C(=O)OCc1cc(C)cc(OC(=O)N3C4CCC3CC4)c1O2 [Example B-147]	–	–	–	200	–	–	–	–	76	54	33
COc1c([C@@H](O)CC(C)C)ccc2c1C(=O)OCc1c(Br)c(C)c(Br)c(OC(=O)C3(C)CC4CCC3C4)c1O2 (stereo partly shown) [Example B-69]	55	–	–	100	52	27	–	–	–	–	–
